The source of these data is patent US11040937B2, “Amide derivative” (TOHOKU UNIVERSITY, priority 2014, dated 2021).

Read-outs that look alike come from different tables or passages of the source.

The test system of one assay is A549/OPNluc cells. As to the kind of experiment: WST assay for cell growth / cell viability. Type of assay: cell-based, human. The note with it: 48±4 hours, WST-1, read-out: IC50 (concentration for 50% inhibition of cell growth). The text has this: (§1) A reporter vector pOPN1-luc obtained by the insertion of a human OPN promoter sequence (−765 to 23) into the multiple cloning site of pGL-3 basic vector (Promega) expresses luciferase when transfected into animal cells. The pOPN1-luc was transfected into a human non-small cell lung cancer-derived cell line A549 together with pPUR (Clontech) that expresses a puromycin resistance gene (puromycin-N-acetyl-transferase gene), and then cells expressing luciferase which could grow a puromycin-supplemented medium were selected. The selected cells were named “A549/OPNluc cells” and used for observation of luciferase expression inhibitory effect under control of OPN promoter, as described below.
(§2) A test compound was added to a culture containing A549/OPNluc cells to observe its influence on the amount of luciferase expressed in the cells. Here, it can be considered that when the test compound has a cell cytotoxity or cell growth inhibitory effect, the total expression level of luciferase is reduced due to a reduction in the number of living cells that depends on the concentration of the test compound, and therefore the luciferase expression inhibitory effect of the test compound under control of OPN promoter cannot be properly evaluated. For this reason, WST assay for quantification of cell proliferation ability or cell viability by colorimetric measurement was firstly performed to determine IC50 (concentration for 50% inhibition of cell growth) of the test compound for cell growth. Then, luciferase activity measurement was performed to determine EC50 (concentration for 50% inhibition of luciferase expression) of the test compound for luciferase expression under control of OPN promoter.
A549/OPNluc cells were suspended in DMEM medium containing 10% fetal calf serum (FCS) and 1% penicillin/streptomycin (P/S) at 3×10^4 cells/mL to obtain a cell suspension, and then the cell suspension was dispensed into each well of a 96-well plate in an amount of 100 μL. In order to perform the assay in triplicate, wells were prepared for a control group, and 3 wells were prepared for each test compound-treated group at each concentration. After the dispensation, the 96-well plate was incubated in a CO2 incubator (at 37° C. and 5% CO2) for 24±4 hours.
The present compound was dissolved in dimethylsulfoxide (DMSO) to obtain a 50 mmol/L solution, and the compound solution was stored at −80° C. The compound solution was diluted with DMSO in 2-fold dilution series (usually, in the range of 0.31 mmol/L to 20 mmol/L) to prepare test compound solutions whose concentration varied by two fold for WST assay.
Each solution of only DMSO (control) and the diluted test compound (sample) was dispensed into each well containing the cell suspension in an amount of 0.5 μL (200-fold dilution). The solution in each well was mixed with a vortex mixer, and then the 96-well plate was incubated in a CO2 incubator (at 37° C. and 5% CO2) for 48±4 hours. Then, Premix WST-1 Reagent (TAKARA BIO INC.) was added in an amount of 10 μL to each well. The solution in each well was mixed with a vortex mixer, and then the 96-well plate was incubated at 37° C. and 5% CO2. After 60 minutes or 120 minutes, the absorbance values (450 nm) were measured with a microplate reader (Bio-Rad; Benchmark or Thermo Scientific; Varioskan Flash).
The absorbance values of the control wells and the sample wells at each concentration were input into an Excel file to determine the percentages of absorbance values of the sample wells at each concentration with to the average absorbance value of the control wells. From the determined values, a fitted curve was determined by the method of least squares to calculate IC50.

In assay [1] the test system is human OPN promoter (pOPN1-luc) in A549/OPNluc cells. The assay can be described thus: Luciferase assay: luciferase expression under control of OPN promoter. In kind it is cell-based.
Description: as §1, §2
The same steps as in the above-mentioned WST assay were performed in which each solution of only DMSO (control) or the diluted test compound (sample) was added in an amount of 0.5 μL to each well containing the cell suspension to achieve 200-fold dilution, and the solution in each well was mixed with a vortex mixer, and the 96-well plate was incubated in a CO2 incubator (at 37° C. and 5% CO2) for 48±4 hours.
Luciferase Assay Substrate (hereinafter referred to as “LAS”) supplied in Luciferase Assay Systems (Promega: Cat #E1500) was dissolved in Luciferase Assay Buffer (LAB) to prepare a luciferase reagent. 5×Cell Culture Lysis Reagent (hereinafter referred to as “CCLR”) was diluted by 5 times with water to prepare 1×CCLR.
After the incubation for 48±4 hours, the medium in each well was completely removed, and 1×CCLR was dispensed into each well in an amount of 50 μL. The 96-well plate was allowed to stand at room temperature for 30 minutes, and then 1×CCLR in each well was used as an assay sample. The luciferase reagent (100 μL) was placed in a tube for chemiluminescence measurement, and the assay sample (20 μL) was added to the tube and mixed with the luciferase reagent to measure chemiluminescence (Relative Luminescence Intensity: RLU) using TB 20/20 (Promega) or GloMax 20/20 (Promega).
The RLU values of the control wells and the sample wells at each concentration were input into an Excel file, and the percentages of RLU values of the sample wells at each concentration to the average RLU value of the control wells were determined. From these values, a fitted curve was determined by the method of least squares to calculate EC50. Also, the percentages of RLU values of the sample wells at each concentration to the average RLU value of the control wells were divided by the percentages of absorbance values of the compounds in WST assay at the same concentrations as those of this assay (to the control), and a fitted curve was determined from the calculated values by the method of least squares to calculate corrected EC50.

Where [2] appears, read: Homo sapiens, A549, A549/OPNluc cells.
The mark [3] stands for this setting: Homo sapiens, A549, A549/OPNluc cells, 48±4 hours, read-out: EC50 (concentration for 50% inhibition of luciferase expression).
[4] abbreviates: Homo sapiens, A549, EC50 corrected for decrease in viable cells (RLU % divided by WST %), read-out: corrected EC50.

With `O=C(CCC(=O)Nc1cccc(Oc2ccc(Cl)cc2)c1)Nc1ccc(O)cc1` [Compound 23, N-(4-Hydroxyphenyl)-4-(3-(4-chlorophenoxy)phenylamino)-4-oxobutanamide], the IC50 in the assay on A549/OPNluc cells (A549/OPNluc cells) is 87.3 µM; in the assay with A549/OPNluc cells (setting [2]), over 100 µM. Further, the EC50 in assay [1] (A549/OPNluc cells, 48±4 hours, read-out: EC50 (concentration for 50% inhibition of luciferase expression)) came out at 40.6 µM; in assay [1] (EC50 corrected for decrease in viable cells (RLU % divided by WST %), read-out: corrected EC50) it was 50.9 µM; in assay [1] (setting [3]) it was 71.5 µM; in assay [1] (setting [4]) it was 82.8 µM.

As for `O=C(CCNC(=O)c1ccc(O)cc1)Nc1cccc(Oc2ccc(Cl)cc2)c1` [Compound 24, N-(3-(3-(4-Chlorophenoxy)phenylamino)-3-oxopropyl)-4-hydroxybenzamide], the IC50 in the assay on A549/OPNluc cells (setting [2]) was 29.4 µM. In addition, the EC50 in assay [1] (setting [3]) stood at 7.5 µM; in assay [1] (setting [4]) it was 11.4 µM.

For `COc1ccc(Oc2cccc(NC(=O)CCCNC(=O)c3ccc(O)cc3)c2)cc1` [Compound 27, N-(4-(3-(4-Methoxyphenoxy)phenylamino)-4-oxobuthyl)-4-hydroxybenzamide], the IC50 with A549/OPNluc cells (setting [2]) turned out to be 71.9 µM. Also, the EC50 came out at 19.8 µM in assay [1] (setting [3]) and 26.6 µM in assay [1] (setting [4]).

As to `COc1ccc(Oc2ccccc2NC(=O)CNC(=O)c2ccc(O)cc2)cc1` [Compound 28, N-(2-(2-(4-Methoxyphenoxy)phenylamino)-2-oxoethyl)-4-hydroxybenzamide], in the assay with A549/OPNluc cells (setting [2]), the IC50 was over 100 µM. The EC50 in assay [1] (setting [3]) was 41.5 µM; in assay [1] (setting [4]) it was 53.7 µM.

With `COc1ccc(Oc2ccccc2NC(=O)CCNC(=O)c2ccc(O)cc2)cc1` [Compound 29, N-(3-(2-(4-methoxyphenoxy)phenylamino)-3-oxopropyl)-4-hydroxybenzamide], the IC50 in the assay with A549/OPNluc cells (setting [2]) is over 100 µM. Further, the results for the EC50 in assay [1] (setting [3]) and in assay [1] (setting [4]) were 51.4 µM and 62.1 µM, respectively.

Take `COc1ccc(Oc2ccc(NC(=O)CCNC(=O)c3ccc(O)cc3)cc2)cc1` [Compound 30, N-(3-(4-(4-methoxyphenoxy)phenylamino)-3-oxopropyl)-4-hydroxybenzamide]: the IC50 with A549/OPNluc cells (setting [2]) is 52.3 µM. The values for the EC50 in assay [1] (setting [3]) and in assay [1] (setting [4]) were 7 µM and 12.6 µM, respectively.

Turning to `O=C(Nc1cccc(Oc2ccc(Cl)cc2)c1)C1CN(C(=O)c2ccc(O)cc2)C1` [Compound 31, N-(3-(4-chlorophenoxy)phenyl)-1-(4-hydroxyphenylcarbonyl)azetidine-3-carboxamide], the IC50 in the assay on A549/OPNluc cells (setting [2]) is 26.9 µM. Further, the EC50 in assay [1] (setting [3]) was determined as 9.3 µM; in assay [1] (setting [4]), 11 µM.

`O=C(Nc1cccc(Oc2ccc(Cl)cc2)c1)C1CCN(C(=O)c2ccc(O)cc2)C1` (stereo not drawn) [Compound 32, N-(3-(4-chlorophenoxy)phenyl)-1-(4-hydroxyphenylcarbonyl)pyrrolidine-3-carboxamide]: the IC50 in the assay on A549/OPNluc cells (setting [2]) came to 24.7 µM. Besides, the figures for the EC50 in assay [1] (setting [3]) and in assay [1] (setting [4]) were 8 µM and 9.3 µM, respectively.

As for `O=C(Nc1cccc(Oc2ccc(Cl)cc2)c1)C1CCCN(C(=O)c2ccc(O)cc2)C1` (stereo not drawn) [Compound 33, N-(3-(4-Chlorophenoxy)phenyl)-1-(4-hydroxyphenylcarbonyl)piperidine-3-carboxamide], the IC50 in the assay on A549/OPNluc cells (setting [2]) was determined as 25.9 µM. Besides, the EC50 in assay [1] (setting [3]) was 8.5 µM; in assay [1] (setting [4]), 11.1 µM.

`O=C(Nc1cccc(Oc2ccc(Cl)cc2)c1)C1CCCN1C(=O)c1ccc(O)cc1` (stereo not drawn) [Compound 34, N-(3-(4-Chlorophenoxy)phenyl)-1-(4-hydroxyphenylcarbonyl)pyrrolidine-2-carboxamide]: the IC50 in the assay with A549/OPNluc cells (setting [2]) turned out to be 55.1 µM. Besides, the EC50 in assay [1] (setting [3]) was found to be 24.9 µM; in assay [1] (setting [4]), 32.9 µM.

With `O=C(CCNC(=O)c1cccs1)Nc1cccc(Oc2ccc(Cl)cc2)c1` [Compound 35, N-(3-(3-(4-Chlorophenoxy)phenylamino)-3-oxopropyl)thiophene-2-carboxamide], in the assay with A549/OPNluc cells (setting [2]), the IC50 was determined as 74.6 µM. Further, the figures for the EC50 in assay [1] (setting [3]) and in assay [1] (setting [4]) were 23.8 µM and 41.4 µM, respectively.

Consider `O=C(CCNC(=O)c1ccsc1)Nc1cccc(Oc2ccc(Cl)cc2)c1` [Compound 36, N-(3-(3-(4-Chlorophenoxy)phenylamino)-3-oxopropyl)thiophene-3-carboxamide], for which the IC50 in the assay with A549/OPNluc cells (setting [2]) was 43.3 µM. Moreover, the values for the EC50 in assay [1] (setting [3]) and in assay [1] (setting [4]) were 22 µM and 31.2 µM, respectively.

Regarding `O=C(CCNC(=O)c1ccncc1)Nc1cccc(Oc2ccc(Cl)cc2)c1` [Compound 37, N-(3-(3-(4-Chlorophenoxy)phenylamino)-3-oxopropyl)pyridine-4-carboxamide], the IC50 with A549/OPNluc cells (setting [2]) was found to be 60.1 µM. The EC50 in assay [1] (setting [3]) was 15.6 µM; in assay [1] (setting [4]) it was 20.9 µM.
